Numbered stars: 1 amine (or outer) side, 2 acyl side, 3 side chain; on linkers, the order of the positions; unused ones are H or OH. Bridge positions count the residues as written; N and C are the ends. Side chains are listed from the residue outwards. Peptide text beside a SMILES is read from it. * marks the point of attachment. C20 diacid = O=C(O)CCCCCCCCCCCCCCCCCCC(=O)*; γGlu = O=C(O)[C@H](CCC(=O)[*:2])N[*:1]
Assays:
human amylin receptor = molecular target: T1, human amylin receptor (Homo sapiens, UniProt O60896+P30988); experiment: Assay (V) binding to the human amylin receptor (SPA, 125I-rat amylin)
T1 construct: expressed in transfected cells
T1 sequence (P30988 25-474): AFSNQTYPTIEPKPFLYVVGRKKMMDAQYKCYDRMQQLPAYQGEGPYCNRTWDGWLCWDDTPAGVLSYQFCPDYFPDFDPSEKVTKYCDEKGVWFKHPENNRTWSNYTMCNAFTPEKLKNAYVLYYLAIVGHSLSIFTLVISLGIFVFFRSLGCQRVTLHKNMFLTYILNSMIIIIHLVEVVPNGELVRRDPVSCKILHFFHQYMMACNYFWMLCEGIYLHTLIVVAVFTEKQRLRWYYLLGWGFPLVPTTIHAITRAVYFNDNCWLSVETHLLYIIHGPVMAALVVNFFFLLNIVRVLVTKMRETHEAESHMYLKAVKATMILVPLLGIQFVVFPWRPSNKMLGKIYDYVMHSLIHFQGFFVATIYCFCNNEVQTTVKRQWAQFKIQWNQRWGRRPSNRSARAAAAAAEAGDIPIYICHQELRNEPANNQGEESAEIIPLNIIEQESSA
T1 sequence (O60896 24-148 partner): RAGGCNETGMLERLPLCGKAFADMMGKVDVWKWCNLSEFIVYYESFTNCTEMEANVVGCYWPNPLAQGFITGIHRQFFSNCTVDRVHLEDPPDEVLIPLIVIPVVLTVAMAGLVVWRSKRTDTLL
Experimental: The binding assay was performed using scintillation proximity assay (SPA) beads (RPNQ0001) from PerkinElmer and cell membranes from the Amylin 3(a)/CRE-luc cells (as described in Assay (II)) were used. Membranes were prepared in the following way; the cells were rinsed with PBS and incubated with Versene for approximately 5 min before harvesting. The cells were flushed with PBS and the cell-suspension was centrifuged for 5 min at 1000 rpm. […] The resulting pellet was resuspended in buffer 2 and protein concentration was measured (BCA protein Assay, Pierce). The homogenate was kept cold during the whole procedure. The membranes were kept at −80° C. until use. The assay was performed in a 384 well Optiplate (PerkinElmer) in a total volume of 40 ul. Membranes were mixed with SPA beads. Final concentration of membranes 35 ng/μL final and SPA beads was 0.05 mg/well. Test-compounds were dissolved in DMSO and further diluted in assay buffer (50 mM Hepes, pH 7.4, 1 mM CaCl2, 5 mM MgCl2, 0.1% OA and 0.02% Tween20). […] Samples were analyzed on TopCounter™ (Packard). The IC50 was calculated using (one site binding competition analysis) GraphPad Prism5 as a measure of receptor affinity.

[1] = molecular target: T2, human amylin receptor (amylin 3(a) receptor: human calcitonin receptor + RAMP-3) (Homo sapiens, UniProt O60896+P30988); experiment: Assay (II)a functional assay, human amylin receptor (CRE luciferase, BHK cells); format: cell-based
T2 construct: expressed in transfected cells
T2 sequence (P30988 25-474): T1 sequence (P30988 25-474)
T2 sequence (O60896 24-148 partner): T1 sequence (O60896 24-148 partner)

[2] = human binding ratio, included for comparison
[3] = Table 6, human functional selectivity (hCTR EC50 / hAmylin-R EC50)
[4] = Table 6a, human functional selectivity (hCTR EC50 / hAmylin-R EC50), at least 5

Ratio hCT/hAmylin binding (human amylin receptor; Table 7b, human calcitonin receptor binding IC50 divided by human amylin receptor binding IC50) | Ratio hCT/hAmylin binding (human amylin receptor; Table 7c, human calcitonin receptor binding IC50 divided by human amylin receptor binding IC50) | Ratio hCT/hAmylin binding (human amylin receptor; [2]) | Ratio hCT/hAmylin funct. [1, 3] | Ratio hCT/hAmylin funct. [1, 4] | Ratio hCT/hAmylin funct. ([1]; Table 6i, hCTR funct. EC50 / hAmylin-R funct. EC50) | Ratio hCT/hAmylin funct. ([1]; Table 6j, hCTR funct. EC50 / hAmylin-R funct. EC50) | Ratio hCT/hAmylin funct. ([1]; Table 6k, hCTR funct. EC50 / hAmylin-R funct. EC50) | Ratio hCT/hAmylin funct. ([1]; hCTR funct. EC50 divided by hAmylin-R funct. EC50) | SMILES
26.0 | 26.0 | 26.0 | 8.9 | 8.9 | 8.9 | 8.9 | 8.9 |  | CC[C@H](C)[C@H](NC(=O)[C@H](C)NC(=O)CNC(=O)[C@H](Cc1ccccc1)NC(=O)[C@H](CC(N)=O)NC(=O)[C@@H]1CCCN1C(=O)[C@H](CO)NC(=O)[C@H](CO)NC(=O)[C@H](Cc1c[nH]cn1)NC(=O)[C@H](CCCNC(=N)N)NC(=O)[C@H](CC(C)C)NC(=O)[C@H](Cc1ccccc1)NC(=O)[C@H](CCC(=O)O)NC(=O)[C@H](C)NC(=O)[C@H](CC(C)C)NC(=O)[C@H](CCCNC(=N)N)NC(=O)[C@H](CCC(N)=O)NC(=O)[C@@H](NC(=O)[C@H](C)NC(=O)[C@@H]1CSSC[C@H](NC(=O)[C@H](CCCCN)NC(=O)CC[C@H](NC(=O)CC[C@H](NC(=O)CCCCCCCCCCCCCCCCCCC(=O)O)C(=O)O)C(=O)O)C(=O)N[C@@H](CC(N)=O)C(=O)N[C@@H]([C@@H](C)O)C(=O)N[C@@H](C)C(=O)N[C@@H]([C@@H](C)O)C(=O)N1)[C@@H](C)O)C(=O)N1CCC[C@H]1C(=O)N[C@@H](CO)C(=O)N[C@@H](CO)C(=O)N[C@H](C(=O)N[C@@H](CC(N)=O)C(=O)N[C@H](C(=O)NCC(=O)N[C@@H](CO)C(=O)N[C@@H](CC(N)=O)C(=O)N[C@H](C(=O)N[C@@H](Cc1ccc(O)cc1)C(N)=O)[C@@H](C)O)C(C)C)[C@@H](C)O [Example 15] ({C20 diacid-γGlu-γGlu}-KCNTATCATQRLAEFLRHSSPNFGAIPSSTNVGSNTY-NH2; disulfide 2-7)
 |  | 9.2 | 4.8 |  |  |  |  |  | CC[C@H](C)[C@H](NC(=O)[C@H](C)NC(=O)CNC(=O)[C@H](Cc1ccccc1)NC(=O)[C@H](CC(N)=O)NC(=O)[C@@H]1CCCN1C(=O)[C@H](CO)NC(=O)[C@H](CO)NC(=O)[C@H](Cc1c[nH]cn1)NC(=O)[C@H](CCCNC(=N)N)NC(=O)[C@H](CC(C)C)NC(=O)[C@H](Cc1ccccc1)NC(=O)[C@H](CCC(=O)O)NC(=O)[C@H](C)NC(=O)[C@H](CC(C)C)NC(=O)[C@H](CCCNC(=N)N)NC(=O)[C@H](CCC(N)=O)NC(=O)[C@@H](NC(=O)[C@H](C)NC(=O)[C@@H]1CSSC[C@H](NC(=O)[C@H](CCCCN)NC(=O)CC[C@H](NC(=O)CCCCCCCCCCCCCCCCCCC(=O)O)C(=O)O)C(=O)N[C@@H](CC(N)=O)C(=O)N[C@@H]([C@@H](C)O)C(=O)N[C@@H](C)C(=O)N[C@@H]([C@@H](C)O)C(=O)N1)[C@@H](C)O)C(=O)N1CCC[C@H]1C(=O)N[C@@H](CO)C(=O)N[C@@H](CO)C(=O)N[C@H](C(=O)N[C@@H](CC(N)=O)C(=O)N[C@H](C(=O)NCC(=O)N[C@@H](CO)C(=O)N[C@@H](Cc1c[nH]cn1)C(=O)N[C@H](C(=O)N[C@@H](Cc1ccc(O)cc1)C(N)=O)[C@@H](C)O)C(C)C)[C@@H](C)O [Example 18] ({C20 diacid-γGlu}-KCNTATCATQRLAEFLRHSSPNFGAIPSSTNVGSHTY-NH2; disulfide 2-7)
 |  | 3.9 | 2.2 |  |  |  |  | 2.2 | CC[C@H](C)[C@H](NC(=O)[C@H](C)NC(=O)CNC(=O)[C@H](Cc1ccccc1)NC(=O)[C@H](CC(N)=O)NC(=O)[C@@H]1CCCN1C(=O)[C@H](CO)NC(=O)[C@H](CO)NC(=O)[C@H](Cc1c[nH]cn1)NC(=O)[C@H](CCCNC(=N)N)NC(=O)[C@H](CC(C)C)NC(=O)[C@H](Cc1ccccc1)NC(=O)[C@H](CCC(=O)O)NC(=O)[C@H](C)NC(=O)[C@H](CC(C)C)NC(=O)[C@H](CCCNC(=N)N)NC(=O)[C@H](CCC(N)=O)NC(=O)[C@@H](NC(=O)[C@H](C)NC(=O)[C@@H]1CSSC[C@H](NC(=O)[C@H](CCCCN)NC(=O)CC[C@H](NC(=O)CCCCCCCCCCCCCCCCCCC(=O)O)C(=O)O)C(=O)N[C@@H](CC(N)=O)C(=O)N[C@@H]([C@@H](C)O)C(=O)N[C@@H](C)C(=O)N[C@@H]([C@@H](C)O)C(=O)N1)[C@@H](C)O)C(=O)N[C@@H](CC(C)C)C(=O)N1CCC[C@H]1C(=O)N[C@@H](CO)C(=O)N[C@H](C(=O)N[C@@H](CC(N)=O)C(=O)N[C@H](C(=O)NCC(=O)N[C@@H](CO)C(=O)N[C@@H](CCC(=O)O)C(=O)N[C@H](C(=O)N[C@@H](Cc1ccc(O)cc1)C(N)=O)[C@@H](C)O)C(C)C)[C@@H](C)O [Example 33] ({C20 diacid-γGlu}-KCNTATCATQRLAEFLRHSSPNFGAILPSTNVGSETY-NH2; disulfide 2-7)
 |  | 2.3 | 4.0 |  |  |  |  |  | CC[C@H](C)[C@H](NC(=O)[C@H](C)NC(=O)CNC(=O)[C@H](Cc1ccccc1)NC(=O)[C@H](CC(N)=O)NC(=O)[C@@H]1CCCN1C(=O)[C@H](CO)NC(=O)[C@H](CO)NC(=O)[C@H](Cc1c[nH]cn1)NC(=O)[C@H](CCCNC(=N)N)NC(=O)[C@H](CC(C)C)NC(=O)[C@H](Cc1ccccc1)NC(=O)[C@H](CCC(=O)O)NC(=O)[C@H](C)NC(=O)[C@H](CC(C)C)NC(=O)[C@H](CCCNC(=N)N)NC(=O)[C@H](CCC(N)=O)NC(=O)[C@@H](NC(=O)[C@H](C)NC(=O)[C@@H]1CSSC[C@H](NC(=O)[C@H](CCCCN)NC(=O)CC[C@H](NC(=O)CCCCCCCCCCCCCCCCCCC(=O)O)C(=O)O)C(=O)N[C@@H](CC(N)=O)C(=O)N[C@@H]([C@@H](C)O)C(=O)N[C@@H](C)C(=O)N[C@@H]([C@@H](C)O)C(=O)N1)[C@@H](C)O)C(=O)N1CCC[C@H]1C(=O)N[C@@H](CO)C(=O)N1CCC[C@H]1C(=O)N[C@H](C(=O)N[C@@H](CC(N)=O)C(=O)N[C@H](C(=O)NCC(=O)N[C@@H](CO)C(=O)N[C@@H](CC(N)=O)C(=O)N[C@H](C(=O)N[C@@H](Cc1ccc(O)cc1)C(N)=O)[C@@H](C)O)C(C)C)[C@@H](C)O [Example 37] ({C20 diacid-γGlu}-KCNTATCATQRLAEFLRHSSPNFGAIPSPTNVGSNTY-NH2; disulfide 2-7)
 |  | 4.3 | 5.0 | 5.0 |  |  |  |  | CC[C@H](C)[C@H](NC(=O)[C@H](C)NC(=O)CNC(=O)[C@H](Cc1ccccc1)NC(=O)[C@H](CC(N)=O)NC(=O)[C@H](CCCCNC(=O)CC[C@H](NC(=O)CC[C@H](NC(=O)CCCCCCCCCCCCCCCCCCC(=O)O)C(=O)O)C(=O)O)NC(=O)[C@H](CO)NC(=O)[C@H](CO)NC(=O)[C@H](Cc1c[nH]cn1)NC(=O)[C@H](CCCNC(=N)N)NC(=O)[C@H](CC(C)C)NC(=O)[C@H](Cc1ccccc1)NC(=O)[C@H](CC(=O)O)NC(=O)[C@H](C)NC(=O)[C@H](CC(C)C)NC(=O)[C@H](CCCNC(=N)N)NC(=O)[C@H](CCC(N)=O)NC(=O)[C@@H](NC(=O)[C@H](C)NC(=O)[C@@H]1CSSC[C@H](NC(=O)[C@@H](N)CCCCN)C(=O)N[C@@H](CC(N)=O)C(=O)N[C@@H]([C@@H](C)O)C(=O)N[C@@H](C)C(=O)N[C@@H]([C@@H](C)O)C(=O)N1)[C@@H](C)O)C(=O)N1CCC[C@H]1C(=O)N[C@@H](CO)C(=O)N[C@@H](CO)C(=O)N[C@H](C(=O)N[C@@H](CC(N)=O)C(=O)N[C@H](C(=O)NCC(=O)N[C@@H](CO)C(=O)N[C@@H](CC(=O)O)C(=O)N[C@H](C(=O)N[C@@H](Cc1ccc(O)cc1)C(N)=O)[C@@H](C)O)C(C)C)[C@@H](C)O [Example 59] (H-KCNTATCATQRLADFLRHSSK([γGlu-γGlu-C20 diacid])NFGAIPSSTNVGSDTY-NH2; disulfide 2-7; N-terminus assumed)
